Columns and labels:
giant foxtail = test: Test B pre-/postemergence herbicide test; assay type: in vivo, Setaria faberi
Outline: (§1)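 Test chemicals in a non-phytotoxic solvent mixture with surfactant were applied preemergence to seeded species and postemergence to plants 2-18 cm tall (1- to 4-leaf stage); rice and barnyardgrass were also tested in a flooded paddy at the 2-leaf stage. Visual rating versus controls after 13-15 days in greenhouse, scale 0 (no effect) to 100 (complete control).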

lambsquarters = test: Test B pre-/postemergence herbicide test; assay type: in vivo, Chenopodium album
Outline: as §1

[1] = tested on: small flower umbrella sedge; test: Test B flooded paddy test; assay type: in vivo, Cyperus difformis; conditions: 1000 g ai/ha, scale 0 to 100 (0 no effect, 100 complete control)
Outline: (§2)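 Greenhouse test; postemergence application to plants at 1–4 leaves (2–18 cm); paddy species at 2 leaves; evaluated visually vs controls at 13–15 days; scale 0–100 (100 = complete control).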

wild oat = test: Test B postemergence herbicide test; assay type: in vivo, Avena fatua
Outline: as §2

pigweed = test: Test B pre-/postemergence herbicide test; assay type: in vivo, Amaranthus retroflexus
Outline: as §1

cocklebur = test: Test B pre-/postemergence herbicide test; assay type: in vivo, Xanthium strumarium
Outline: (§3)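 Greenhouse pot assay with simultaneous preemergence (treated seed) and postemergence (2–18 cm seedlings) applications of surfactant-containing, non-phytotoxic solvent formulations. Response scored visually 13–15 days later on a 0–100 scale, 100 meaning complete control.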

barnyardgrass [2] = test: Test B flooded paddy test; assay type: in vivo, Echinochloa crus-galli; conditions: 1000 g ai/ha, scale 0 to 100 (0 no effect, 100 complete control)
Outline: as §2

rice = test: Test B flooded paddy test; assay type: in vivo, Oryza sativa; conditions: 1000 g ai/ha, scale 0 to 100 (0 no effect, 100 complete control)
Outline: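 Paddy species grown to the 2-leaf stage under flooding; blackgrass sprayed postemergence at 2–18 cm (1- to 4-leaf stage). Plants kept in a greenhouse for 13 to 15 days, then visually rated against controls on 0 (no effect) to 100 (complete control).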

barnyardgrass [3] = test: Test B pre-/postemergence herbicide test; assay type: in vivo, Echinochloa crus-galli
Outline: as §3

ducksalad = test: Test B flooded paddy test; assay type: in vivo, Heteranthera limosa; conditions: 1000 g ai/ha, scale 0 to 100 (0 no effect, 100 complete control)
Outline: as §2

wheat = test: Test B postemergence herbicide test; assay type: in vivo, Triticum aestivum; parameters: key to Wheat plant response rating: 0 = no effect, 100 = complete control
Outline: as §2

morningglory = test: Test B pre-/postemergence herbicide test; assay type: in vivo, Ipomoea coccinea
Outline: as §3

velvetleaf = test: Test B pre-/postemergence herbicide test; assay type: in vivo, Abutilon theophrasti
Outline: as §1

blackgrass = test: Test B postemergence herbicide test; assay type: in vivo, Alopecurus myosuroides
Outline: as §2

Surinam grass = test: Test B pre-/postemergence herbicide test; assay type: in vivo, Urochloa decumbens
Outline: as §1

[4] = 125 g ai/ha; 0 = no effect, 100 = complete control; preemergence
[5] = 500 g ai/ha; visual rating, 0 = no effect, 100 = complete control; preemergence
[6] = postemergence, 125 g ai/ha; visual rating, scale 0 (no effect) to 100 (complete control)
[7] = postemergence, 500 g ai/ha; scale 0 to 100, 0 is no effect, 100 is complete control
[8] = postemergence, 500 g ai/ha; visual rating, scale 0 (no effect) to 100 (complete control)
[9] = 125 g ai/ha; visual rating, scale 0 (no effect) to 100 (complete control); postemergence
[10] = 500 g ai/ha; visual rating 0-100, 0 no effect, 100 complete control; preemergence
[11] = preemergence, 125 g ai/ha; 0 to 100 scale, 0 is no effect, 100 is complete control

Question: `CCn1nc(C(C)(C)C)cc1C(=O)Nc1cc(C(=O)OC(C)C)c(F)cc1F` [Compound 248] was tested. Which “Foxtail, Giant plant response rating (0 to 100 scale)” value (giant foxtail; [4]) did it give?
Answer: 20

Question: What about the “Plant response rating, Foxtail, Giant” value (giant foxtail; [5]) of the same compound?
Answer: 60

Question: What about the “Foxtail, Giant plant response rating” value (giant foxtail; [6]) of the same compound?
Answer: 20

Question: What about the “Foxtail, Giant plant response rating” value (giant foxtail; [7]) of the same compound?
Answer: 30

Question: What about the “Lambsquarters plant response rating (0 to 100 scale)” value (lambsquarters; [4]) of the same compound?
Answer: 0

Question: And the “Lambsquarters plant response rating” value (lambsquarters; [6])?
Answer: 60

Question: And the “Lambsquarters plant response rating” value (lambsquarters; [7])?
Answer: 70

Question: And the “Sedge, Umbrella plant response rating” value [1]?
Answer: 50

Question: What about the “Oat, Wild plant response rating” value (wild oat; [6]) of the same compound?
Answer: 30

Question: And the “Oat, Wild plant response rating” value (wild oat; [7])?
Answer: 60

Question: What about the “Pigweed plant response rating (0 to 100 scale)” value (pigweed; [4]) of the same compound?
Answer: 0

Question: What about the “Pigweed plant response rating” value (pigweed; [6]) of the same compound?
Answer: 60

Question: And the “Pigweed plant response rating” value (pigweed; [7])?
Answer: 80

Question: What about the “Cocklebur plant response rating (0 to 100 scale)” value (cocklebur; [4]) of the same compound?
Answer: 0

Question: And the “Plant response rating, Cocklebur” value (cocklebur; [5])?
Answer: 0

Question: And the “Cocklebur plant response rating” value (cocklebur; [6])?
Answer: 30

Question: What about the “Cocklebur plant response rating” value (cocklebur; [8]) of the same compound?
Answer: 50

Question: What about the “Barnyardgrass plant response rating” value (barnyardgrass [2]) of the same compound?
Answer: 40

Question: And the “Rice plant response rating” value (rice)?
Answer: 50

Question: What about the “Barnyardgrass plant response rating (0 to 100 scale)” value (barnyardgrass [3]; [4]) of the same compound?
Answer: 0

Question: And the “Plant response rating, Barnyardgrass” value (barnyardgrass [3]; [5])?
Answer: 20

Question: And the “Barnyardgrass plant response rating” value (barnyardgrass [3]; [6])?
Answer: 10

Question: And the “Barnyardgrass plant response rating” value (barnyardgrass [3]; [8])?
Answer: 40

Question: What about the “Ducksalad plant response rating” value (ducksalad) of the same compound?
Answer: 30

Question: What about the “Wheat plant response rating” value (wheat; [6]) of the same compound?
Answer: 30

Question: And the “Wheat plant response rating” value (wheat; [7])?
Answer: 40

Question: What about the “Morningglory plant response rating (0 to 100 scale)” value (morningglory; [4]) of the same compound?
Answer: 0

Question: What about the “Plant response rating, Morningglory” value (morningglory; [5]) of the same compound?
Answer: 0

Question: What about the “Morningglory plant response rating” value (morningglory; [6]) of the same compound?
Answer: 20

Question: And the “Morningglory plant response rating” value (morningglory; [7])?
Answer: 50

Question: What about the “Velvetleaf plant response rating (0 to 100 scale)” value (velvetleaf; [4]) of the same compound?
Answer: 0

Question: And the “Plant response rating, Velvetleaf” value (velvetleaf; [5])?
Answer: 20

Question: And the “Velvetleaf plant response rating” value (velvetleaf; [6])?
Answer: 20

Question: And the “Velvetleaf plant response rating” value (velvetleaf; [7])?
Answer: 30

Question: And the “Blackgrass plant response rating” value (blackgrass; [6])?
Answer: 20

Question: And the “Blackgrass plant response rating” value (blackgrass; [8])?
Answer: 30

Question: And the “Surinam Grass plant response rating (0 to 100 scale)” value (Surinam grass; [4])?
Answer: 20

Question: And the “Plant response rating, Surinam Grass” value (Surinam grass; [5])?
Answer: 60

Question: What about the “Surinam Grass plant response rating” value (Surinam grass; [6]) of the same compound?
Answer: 10

Question: What about the “Surinam Grass plant response rating” value (Surinam grass; [7]) of the same compound?
Answer: 20

Question: What does the source list for `CCn1nc(C(C)(C)C)cc1C(=O)Nc1cncc(C(=O)N(C)C)n1` [Compound 287]?
Answer: Foxtail, Giant plant response rating (0 to 100 scale) (giant foxtail; [4]): 10; Foxtail, Giant plant response rating (giant foxtail; [9]): 20; Plant response rating, Foxtail, Giant (giant foxtail; [5]): 90; Foxtail, Giant plant response rating (giant foxtail; [7]): 80; Lambsquarters plant response rating (0 to 100 scale) (lambsquarters; [4]): 100; Lambsquarters plant response rating (lambsquarters; [9]): 10; Plant response rating, Lambsquarters (lambsquarters; [5]): 100; Lambsquarters plant response rating (lambsquarters; [7]): 20; Sedge, Umbrella plant response rating [1]: 80; Oat, Wild plant response rating (wild oat; [9]): 20; Oat, Wild plant response rating (wild oat; [7]): 40; Pigweed plant response rating (0 to 100 scale) (pigweed; [4]): 90; Pigweed plant response rating (pigweed; [9]): 20; Plant response rating, Pigweed (pigweed; [5]): 100; Pigweed plant response rating (pigweed; [7]): 30; Cocklebur plant response rating (0 to 100 scale) (cocklebur; [4]): 0; Cocklebur plant response rating (cocklebur; [9]): 10; Plant response rating, Cocklebur (cocklebur; [5]): 60; Cocklebur plant response rating (cocklebur; [7]): 10; Barnyardgrass plant response rating (barnyardgrass [2]): 80; Rice plant response rating (rice): 70; Barnyardgrass plant response rating (0 to 100 scale) (barnyardgrass [3]; [4]): 80; Barnyardgrass plant response rating (barnyardgrass [3]; [9]): 0; Plant response rating, Barnyardgrass (barnyardgrass [3]; [5]): 100; Barnyardgrass plant response rating (barnyardgrass [3]; [7]): 20; Ducksalad plant response rating (ducksalad): 80; Wheat plant response rating (wheat; [9]): 10; Wheat plant response rating (wheat; [7]): 30; Morningglory plant response rating (0 to 100 scale) (morningglory; [4]): 0; Morningglory plant response rating (morningglory; [9]): 0; Plant response rating, Morningglory (morningglory; [5]): 10; Morningglory plant response rating (morningglory; [7]): 20; Velvetleaf plant response rating (velvetleaf; [9]): 0; Plant response rating, Velvetleaf (velvetleaf; [5]): 100; Velvetleaf plant response rating (velvetleaf; [7]): 60; Blackgrass plant response rating (blackgrass; [9]): 10; Blackgrass plant response rating (blackgrass; [7]): 30; Surinam Grass plant response rating (0 to 100 scale) (Surinam grass; [4]): 50; Surinam Grass plant response rating (Surinam grass; [9]): 0; Plant response rating, Surinam Grass (Surinam grass; [5]): 80; Surinam Grass plant response rating (Surinam grass; [7]): 10

Question: With `CCn1nc(C(C)(C)C)cc1C(=O)Nc1cccc(C#N)c1` [Compound 139] as the compound, how does the “Plant response rating, Foxtail, Giant” value (giant foxtail; [10]) read?
Answer: 100

Question: And the “Foxtail, Giant plant response rating” value (giant foxtail; [6])?
Answer: 10

Question: What about the “Foxtail, Giant plant response rating” value (giant foxtail; [8]) of the same compound?
Answer: 20

Question: And the “Plant response rating, Foxtail, Giant” value (giant foxtail; [11])?
Answer: 70

Question: And the “Plant response rating, Lambsquarters” value (lambsquarters; [10])?
Answer: 100

Question: And the “Lambsquarters plant response rating” value (lambsquarters; [6])?
Answer: 80

Question: And the “Lambsquarters plant response rating” value (lambsquarters; [8])?
Answer: 90

Question: What about the “Plant response rating, Lambsquarters” value (lambsquarters; [11]) of the same compound?
Answer: 100

Question: And the “Sedge, Umbrella plant response rating” value ([1]; visual rating, 13 to 15 days)?
Answer: 80

Question: What about the “Oat, Wild plant response rating” value (wild oat; [6]) of the same compound?
Answer: 10

Question: And the “Oat, Wild plant response rating” value (wild oat; [8])?
Answer: 10

Question: And the “Plant response rating, Pigweed” value (pigweed; [10])?
Answer: 100

Question: What about the “Pigweed plant response rating” value (pigweed; [6]) of the same compound?
Answer: 60

Question: And the “Pigweed plant response rating” value (pigweed; [8])?
Answer: 90

Question: What about the “Plant response rating, Pigweed” value (pigweed; [11]) of the same compound?
Answer: 90

Question: And the “Plant response rating, Cocklebur” value (cocklebur; [10])?
Answer: 10

Question: What about the “Cocklebur plant response rating” value (cocklebur; [6]) of the same compound?
Answer: 20

Question: What about the “Cocklebur plant response rating” value (cocklebur; [8]) of the same compound?
Answer: 100

Question: And the “Plant response rating, Cocklebur” value (cocklebur; [11])?
Answer: 0

Question: What about the “Barnyardgrass plant response rating” value (barnyardgrass [2]; visual rating, 13 to 15 days) of the same compound?
Answer: 70

Question: What about the “Rice plant response rating” value (rice; visual rating, 13 to 15 days) of the same compound?
Answer: 50

Question: What about the “Plant response rating, Barnyardgrass” value (barnyardgrass [3]; [10]) of the same compound?
Answer: 90

Question: What about the “Barnyardgrass plant response rating” value (barnyardgrass [3]; [6]) of the same compound?
Answer: 10

Question: What about the “Barnyardgrass plant response rating” value (barnyardgrass [3]; [8]) of the same compound?
Answer: 10

Question: What about the “Plant response rating, Barnyardgrass” value (barnyardgrass [3]; [11]) of the same compound?
Answer: 80

Question: And the “Ducksalad plant response rating” value (ducksalad; visual rating, 13 to 15 days)?
Answer: 80

Question: And the “Wheat plant response rating” value (wheat; [8])?
Answer: 10

Question: And the “Plant response rating, Morningglory” value (morningglory; [10])?
Answer: 30

Question: What about the “Morningglory plant response rating” value (morningglory; [6]) of the same compound?
Answer: 10

Question: And the “Morningglory plant response rating” value (morningglory; [8])?
Answer: 100

Question: And the “Plant response rating, Morningglory” value (morningglory; [11])?
Answer: 10

Question: And the “Plant response rating, Velvetleaf” value (velvetleaf; [10])?
Answer: 80

Question: What about the “Velvetleaf plant response rating” value (velvetleaf; [6]) of the same compound?
Answer: 20

Question: What about the “Velvetleaf plant response rating” value (velvetleaf; [8]) of the same compound?
Answer: 60

Question: What about the “Plant response rating, Velvetleaf” value (velvetleaf; [11]) of the same compound?
Answer: 50

Question: What about the “Blackgrass plant response rating” value (blackgrass; [6]) of the same compound?
Answer: 0

Question: And the “Blackgrass plant response rating” value (blackgrass; [8])?
Answer: 10

Question: And the “Plant response rating, Surinam Grass” value (Surinam grass; [10])?
Answer: 90

Question: And the “Surinam Grass plant response rating” value (Surinam grass; [6])?
Answer: 10

Question: What about the “Surinam Grass plant response rating” value (Surinam grass; [8]) of the same compound?
Answer: 20

Question: And the “Plant response rating, Surinam Grass” value (Surinam grass; [11])?
Answer: 30
